Results reported in patent US8399206B2, “Methods for diagnosis, prognosis and methods of treatment” (Nodality, Inc., priority 2008, dated 2013).

Key:
Type in all cases: cell-based, human
[1] = system: AML leukemic cells; test: Apoptosis/cytostasis arm: 48-hr kinase inhibitor incubation of AML cells (cleaved PARP, CyclinB1, p-Histone H3); conditions: 1 μM; two samples with the greatest SCF and G-CSF signaling response and most robust proliferation
Description: The TKIs impact was measured on distal functional readouts, including apoptosis (cleaved PARP) and cell cycle (CyclinB1-S/G2 phase; p-Histone H3-M phase). All results were compared with results from bone marrow samples from healthy donors (N=6).

[2] = system: AML BMMC leukemic blasts; test: Functional apoptosis assay, AML study No. 2 (etoposide or Ara-C and daunorubicin, 24 hours); conditions: patients younger than 60 years old
Description: Multi-parameter flow cytometric analysis was performed on BMMC samples taken at diagnosis from 61 AML patients. The samples were balanced for complete response (CR) and non-responders (NR) after 1 to 3 cycles of induction therapy and de novo versus secondary AML. Nodes in Tables 2 to 10 were examined.
Functional assays were performed as previously described. […]
The median fluorescence intensity (MFI) was computed for each node from the fluorescence intensity levels for the cells in the myeloid population. The MFI values were then used to compute a variety of metrics by comparing them to baseline or background values, including the unmodulated condition, cellular autofluorescence and antibody isotype controls. The following metrics were computed: • 1. Basal MFI (“Basal”)=log2(MFIUnmodulated Stained)−log2(MFIGated Unstained (Autofluoresence)), designed to measure the basal levels of a certain protein under unmodulated conditions. • 2. Fold Change MFI (“Fold”)=log2(MFIModulated Stained)−log2(MFIUnmodulated Stained), a measure of the change in the activation state of a protein under modulated conditions. • 3. Total Phospho MFI (“TotalPhospho”)=log2(MFIModulated Stained)−log2(MFIGated Unstained (Autofluorescence)), a measure of the total levels of a protein under modulated conditions. • 4. […]

[3] = system: FLT3-WT and FLT3-ITD AML leukemic blasts; test: SCNP signaling and apoptosis in FLT3-WT versus FLT3-ITD AML samples (Example 9); conditions: FLT3-ITD vs FLT3-WT samples, study 1 and study 2
Source text: This example identifies intracellular signaling pathways associated with FLT3 ITD in two independent cohorts of diagnostic AML samples that serve as an improvement over current clinical tools in the identification of clinically meaningful altered FLT 3 and has implications for cohort selection in the development of FLT3 inhibitors. The two cohorts of data were further analyzed to investigate the differences in signaling between FLT-WT and FLT-ITD samples. The first cohort of data (“study 1”) comprised the 34 samples from University Health Network outlined in Table 16 and Table 19. The second cohort of data (“study 2”) comprised an 83 sample subset of MD Anderson Cancer Center data outlined in Table 16 (and Table 19). The 83 sample subset was selected based on known FLT3 mutation status. Both cohorts of data were used to investigate differences in FLT3 signaling between leukemic blasts and control data.
In order to further characterize wild-type FLT receptor signaling in AML, we compared FLT3L-induced signaling in the myeloblast population of control BMMC samples with FLT3L-induced signaling in the leukemic blast population of FLT3-WT AML samples.
Univariate analysis, unadjusted for multiple testing, was performed sequentially and independently on the two study cohorts in order to identify signaling nodes that distinguished with FLT3-ITD from FLT3-WT AML patient samples. […] Results from both studies include the AUC, Wilcoxon and t-test p-value for each node, and the number/mean value of the samples in the FLT3-ITD and FLT3-WT AML groups with common stratifying nodes summarized in FIG. 23. Although the majority of the discussion herein is directed to nodes that had similar reponses within the two cohorts of data, some differences were observed between the two cohorts of data. These differences may have been due to the different clinical characteristics of the two cohorts of data, specifically biases in the data from UHN.

[4] = system: pediatric AML leukemic blasts; test: SCNP assay on pediatric AML bone marrow samples, POG trial 9421 (Example 11)
Description: SCNP assays were performed on 77 bone marrow samples from pediatric AML patients enrolled in POG trial 9421 of which 67 were evaluable/had sufficient data for analysis and were enriched for non-responders (NR). 80 combinations of modulators and intra-cellular proteins (signaling nodes) were investigated including nodes involved in the phosphoinositide 3-kinase (PI3K), Janus Kinases (JAK), signal transducers and activators of transcription (STAT) and the DNA damage response and apoptosis pathways. Basal and modulated protein levels in leukemic blasts were measured using several metrics (e.g., fold change, total level of phosphorylation, and a rank based method Uu measuring the proportion of cells that shift from baseline), and nodes were examined in univariate and multivariate analyses for their ability to discriminate between AML responsive (CR, n=46) and non-responsive (NR, n=21) to anthracycline/cytarabine-based induction therapy. Furthermore, nodes were examined for their ability to identify patients likely to be in complete continuous remission (CCR, n=23) or relapse (CR-Rel, n=23) within 4 years.

[5] = system: AML blasts; test: SCNP / phospho-flow modulated signaling assay, AML study No. 1 (PBMC at diagnosis, CR vs NR)
Source text: The present illustrative example represents how to analyze cells in one embodiment of the present invention. There are several steps in the process, such as the stimulation step, the staining step and the flow cytometry step. The stimulation step of the phospho-flow procedure can start with vials of frozen cells and end with cells fixed and permeabilized in methanol. Then the cells can be stained with an antibody directed to a particular protein of interest and then analyzed using a flow cytometer.
Frozen cells are thawed in a 37° C. water bath and gently resuspended in the vial and transferred to the 15 mL conical tube. The 15 mL tube is centrifuged at 930 RPM (200×g) for 8 minutes at room temperature. The supernatant is aspirated and the pellet is gently resuspended in 1 mL media A. The cell suspension is filtered through a 70 um cell strainer into a new 15 mL tube. The cell strainer is rinsed with 1 mL media A and another 12 ml of media A into the 15 mL tube. The cells are mixed into an even suspension. A 20 μL aliquot is immediately removed into a 96-well plate containing 180 μL PBS+4% FBS+CD45 Alexa 700+PI to determine cell count and viability post spin. After the determination, the 15 mL tubes are centrifuged at 930 RPM (200×g) for 8 minutes at room temperature. The supernatant is aspirated and the cell pellet is gently resuspended in 4 mL PBS+4 μL Amine Aqua and incubated for 15 min in a 37° C. incubator. 10 mL RPMI+1% FBS is added to the cell suspension and the tube is inverted to mix the cells. The 15 mL tubes are centrifuged at 930 RPM (200×g) for 8 minutes at room temperature. The cells are resuspended in Media A at the desired cell concentration (1.25×10^6/mL). For samples with low numbers of cells (<18.5×10^6), the cells are resuspended in up to 15 mL media. For samples with high numbers of cells (>18.5×10^6), the volume is raised to 10 mL with media A and the desired volume is transferred to a new 15 mL tube, and the cell concentration is adjusted to 1.25×10^6 cells/ml. 1.6 mL of the above cell suspension (concentration at 1.25×10^6 cells/ml) is transferred into wells of a multi-well plate. From this plate, 80 ul is dispensed into each well of a subsequent plate. The plates are covered with a lid (Nunc) and placed in a 37° C. incubator for 2 hours to rest.
A concentration for each stimulant that is five folds more (5×) than the final concentration is prepared using Media A as diluent. 5× stimuli are arrayed into wells of a standard 96 well v-bottom plate that correspond to the wells on the plate with cells to be stimulated.
Adding the stimulant: The cell plate(s) are taken out of the incubator and placed in a 37° C. water bath next to the pipette apparatus. The cell plate is taken from the water bath and gently swirled to resuspend any settled cells. With pipettor, the stimulant is dispensed into the cell plate and vortexed at “7” for 5 seconds. The deep well plate is put back into the water bath.
Adding Fixative: 200 μl of the fixative solution (final concentration at 1.6%) is dispensed into wells and then mixed on the titer plate shaker on high for 5 seconds. The plate is covered with foil sealer and incubated in a 37° C. water bath for 10 minutes. The plate is spun for 6 minutes at 2000 rpm at room temperature. The cells are aspirated using a 96 well plate aspirator (VP Scientific). The plate is vortexed to resuspend cell pellets in the residual volume. The pellet is ensured to be dispersed before the Methanol step (see cell permeabilization) or clumping will occur.
Cell Permeabilization: Permeability agent, for example methanol, is added slowly and while the plate is vortexing. To do this, the cell plate is placed on titer plate shaker and made sure it is secure. The plate is set to shake using the highest setting. A pipetter is used to add 0.6 mls of 100% methanol to the plate wells. The plate(s) are put on ice until this step has been completed for all plates.

[6] = system: AML BMMC leukemic blasts; test: SCNP modulated signaling assay, AML study No. 2 (BMMC, CR vs NR, clinical sub-groups)
Description: Two independent sets of cryopreserved samples were analyzed sequentially. The first set consisted of 35 peripheral blood mononuclear cell (PBMC) samples derived from AML patients. The second set consisted of 134 cryopreserved bone marrow mononuclear cell (BMMC) samples derived from AML patients. These samples were the same samples used in the previous examples. Sample inclusion criteria required collection prior to initiation of induction chemotherapy, AML classification by the French-American-British (FAB) criteria as M0 through M7 (excluding M3) and availability of clinical annotations.
In the first study, induction chemotherapy consisted of at least one cycle of standard cytarabine-based induction therapy (i.e. daunorubicin 60 mg/m^2×3 days, cytarabine 100-200 mg/m^2 continuous infusion×7 days); responses were measured after one cycle of induction therapy. In the second study, cytarabine (200 mg/m^2 to 3 g/m^2) was used in combination with an anthracycline (daunorubicin or idarubicin) or an additional anti-metabolite (e.g. fludarabine or troxacitabine), and sometimes, an experimental agent (Table 16). […] Standard clinical and laboratory criteria were used for defining complete response (CR) in both studies. […] Classified as “CRp,” these samples were included in the CR group for all primary analysis. The univariate analyses were also repeated with the CRp patients classified into the NR sample group for sensitivity analysis.
Cyropreserved samples were thawed at […], washed and centrifuged in PBS, 10% FBS and 2 mM EDTA. The cells were re-suspended, filtered to remove debris and washed in RPMI cell culture media, 1% FBS, then stained with Live/Dead Fixable Aqua Viability Dye to distinguish non-viable cells. The cells were then re-suspended in RPMI, 1% FBS, aliquoted to 100,000 cells/condition and rested for 1-2 hours at 37° C. prior to SCNP assays. Each condition included two to five phenotypic markers for cell population gating (eg, CD45, CD33), up to three intracellular stains or up to three additional surface markers or control antibodies for an eight-color flow cytometry assay.
Functional assays were performed as previously described. Cells were incubated with modulators (Table 18), at 37° C. for 3-15 minutes, fixed with 1.6% paraformaldehyde (final concentration) for 10 minutes at 37° C., pelleted and permeabilized with 100% ice-cold methanol and stored at −80° C.
Data was acquired using FACS DIVA software on both LSR II and CANTO II Flow Cytometers (BD). For all analyses, dead cells and debris were excluded by forward scatter (FSC), side scatter (SSC), and Amine Aqua Viability Dye measurement. Leukemic cells were identified as cells that lacked the characteristics of mature lymphocytes (CD45^++, CD33^−) and that fit the CD45 and CD33 versus right-angle light-scatter characteristics consistent with myeloid leukemia cells.
The median fluorescence intensity (MFI) was computed for each node from the fluorescence intensity levels for the cells in the myeloid population. The MFI values were then used to compute a variety of metrics by comparing them to baseline or background values, including the unmodulated condition, cellular autofluorescence and antibody isotype controls. The following metrics were computed: • 1. Basal MFI (“Basal”)=log2(MFIUnmodulated Stained)−log2(MFIGated Unstained (Autofluoresence)), designed to measure the basal levels of a certain protein under unmodulated conditions. • 2.

[7] = Study No. 2, all patients, CR samples
[8] = Study No. 2, all patients, NR samples
[9] = Study No. 1 sensitivity analysis, CR samples
[10] = Study No. 1 sensitivity analysis, NR samples incl. CRp

C[C@@H]1CCN(C(=O)CC#N)C[C@@H]1N(C)c1ncnc2[nH]ccc12 [CP-690,550]
sensitivity to kinase inhibitor as measured by cytostasis readouts [1]: most sensitive

COc1cc([C@@H]2c3cc4c(cc3[C@@H](O[C@@H]3O[C@@H]5CO[C@@H](C)O[C@H]5[C@H](O)[C@H]3O)[C@H]3COC(=O)[C@H]23)OCO4)cc(OC)c1O [Etoposide]
induced apoptosis, CR vs NR [2]: CRs induce apoptosis to Etoposide or Ara-C/Daunorubicin more than NRs
in vitro apoptosis (etoposide→c-PARP|Total) [3]: more sensitive to in vitro apoptosis than FLT3-WT samples
apoptotic response (c-PARP, p-Chk2), CR vs NR ([4]; CR n=46, NR n=21): higher levels of apoptosis in CR samples than in NR samples

OO [H2O2, hydrogen peroxide, reference compound]
phosphorylated PLCγ2 and SLP-76 upon H2O2 treatment ([5]; CR patients versus NR patients): attained higher levels of phosphorylated PLCγ2 and SLP-76 upon H2O2 treatment
p-Akt levels upon H2O2 treatment ([5]; NR vs CR patient blasts): higher levels of p-Akt in NR patients versus CR patients
p-AKT and p-PLCγ2 following H2O2 treatment ([6]; NR samples, older patient cohort (>=60 years)): increases in p-AKT and p-PLCγ2
Mean Value of CRs, p-Akt Fold [6, 7]: 0.68
Mean Value of NRs, p-Akt Fold [6, 8]: 0.91
H2O2 and FLT3L responses, NR vs CR ([6]; patients younger than 60 years old (so in the source)): NRs have higher H2O2 and FLT3L responses than CRs
p-Akt and p-PLC gamma levels with hydrogen peroxide as modulator ([4]; NR samples): lower p-Akt and p-PLC gamma levels in NR samples

C/C=C(/C)C(=O)O[C@H]1C(C)=C2[C@H]([C@@H]1OC(=O)CCCCCCC)[C@@](C)(OC(C)=O)C[C@H](OC(=O)CCC)[C@@]1(O)[C@H]2OC(=O)[C@@]1(C)O [Thapsigargin, reference compound]
Mean Value of CRs, p-CREB Total Phospho [5, 9]: 1.79
Mean Value of CRs, p-S6 Fold [5, 9]: 0.03
Mean Value of CRs, p-S6 Total Phospho [5, 9]: 0.31
Mean Value of NRs, p-CREB Total Phospho [5, 10]: 2.77
Mean Value of NRs, p-S6 Fold [5, 10]: 0.31
Mean Value of NRs, p-S6 Total Phospho [5, 10]: 0.67
Mean Value of CRs, p-Erk Fold [6, 7]: 1.22
Mean Value of NRs, p-Erk Fold [6, 8]: 0.36
induction of p-Erk, p-CREB and p-S6 ([4]; relapse vs complete continuous remission (CCR)): less in CR-Rd than in CCR samples
